Holding throughout (type): cell-based
Test [1] concerns BT474 (breast cancer) cells. Put plainly: In vitro cell assay (MTS cell viability), BT474. To be noted: Homo sapiens, BT-474; free compounds (natural products and synthetic analogs); cell viability 96 hours after treatment. Summed up: (§1)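 Cells seeded 24 h, then treated with antibody-drug conjugates or free drug, 3-fold serial dilutions at 10 concentrations in duplicate. Viability by MTS at 96 h as percent of untreated control; IC50 from four-parameter logistic fit.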

In test [2] the test system is N87 (gastric cancer) cells. Put plainly: In vitro cell assay (MTS cell viability), N87. To be noted: 96 h, free compounds (natural products and synthetic analogs); cell viability 96 hours after treatment. Summed up: as §1
Test [3] relates to MDA-MB-361-DYT2 (breast cancer) cells. Put plainly: In vitro cell assay (MTS cell viability), MDA-MB-361-DYT2. To be noted: 96 h, free compounds (natural products and synthetic analogs); cell viability 96 hours after treatment. The gist of the method:
as §1

Test [4] concerns MDA-MB-468 cells (target non-expressing). Put plainly: In vitro cell assay (MTS cell viability), MDA-MB-468. To be noted: Homo sapiens, MDA-MB-468, 96 h, read-out: MDA-MB-468 IC50 (nM). The method, then:
Target expressing (BT474 (breast cancer), N87 (gastric cancer), HCC1954 (breast cancer), MDA-MB-361-DYT2 (breast cancer)) or non-expressing (MDA-MB-468) cells were seeded in 96-well cell culture plates for 24 hours before treatment. Cells were treated with 3-fold serially diluted antibody-drug conjugates or free compounds (i.e., no antibody conjugated to the drug) in duplicate at 10 concentrations. Cell viability was determined by CellTiter 96® AQueous One Solution Cell Proliferation MTS Assay (Promega, Madison Wis.) 96 hours after treatment. Relative cell viability was determined as percentage of untreated control. IC50 values were calculated using a four parameter logistic model #203 with XLfit v4.2 (IDBS, Guildford, Surry, UK). The potency ranged upward from 0.0002 nm. Similar procedures and techniques were employed.

As usually defined, the IC50 is the point on the concentration scale where inhibition reaches its midpoint.

Structures can show the parent of a compound that is named as a salt. Where only a bound is given, the exact number is not on record here.

As to `CC(/C=C/[C@H]1O[C@H](CC(=O)O)C[C@@]2(CO2)[C@@H]1O)=C\C[C@@H]1O[C@H](C)[C@H](NC(=O)/C=C\[C@H](C)O)C[C@@H]1C` [#B4, [(3R,5S,7R,8R)-8-hydroxy-7-{(1E,3E)-5-[(2S,3S,5R,6R)-5-{[(2Z,4S)-4-hydroxypent-2-enoyl]amino}-3,6-dimethyltetrahydro-2H-pyran-2-yl]-3-methylpenta-1,3-dien-1-yl}-1,6-dioxaspiro[2.5]oct-5-yl]acetic acid], the IC50 in test [1], in test [2], in test [3] and in test [4] was above 100 nM throughout.

In the case of `CCCNC(=O)C[C@@H]1C[C@@]2(CO2)C[C@@H](/C=C/C(C)=C/C[C@@H]2O[C@H](C)[C@H](NC(=O)/C=C\[C@H](C)OC(C)=O)C[C@@H]2C)O1` [#B64, (2S,3Z)-5-({(2R,3R,5S,6S)-2,5-dimethyl-6-[(2E,4E)-3-methyl-5-{(3S,5S,7S)-7-[2-oxo-2-(propylamino)ethyl]-1,6-dioxaspiro[2.5]oct-5-yl}penta-2,4-dien-1-yl]tetrahydro-2H-pyran-3-yl}amino)-5-oxopent-3-en-2-yl acetate], the IC50 in test [1] was 5.26 nM; in test [2], 24.8 nM; in test [4], 1.38 nM.

As to `CCCNC(=O)C[C@@H]1C[C@@]2(CO2)[C@H](O)[C@@H](/C=C/C(C)=C/C[C@@H]2O[C@H](C)[C@H](NC(=O)/C=C\[C@H](C)OC(=O)N3CCCCC3)C[C@@H]2C)O1` [#B66, (2S,3Z)-5-({(2R,3R,5S,6S)-6-[(2E,4E)-5-{(3R,4R,5R,7S)-4-hydroxy-7-[2-oxo-2-(propylamino)ethyl]-1,6-dioxaspiro[2.5]oct-5-yl}-3-methylpenta-2,4-dien-1-yl]-2,5-dimethyltetrahydro-2H-pyran-3-yl}amino)-5-oxopent-3-en-2-yl piperidine-1-carboxylate], the IC50 in test [1] came out at 0.18 nM; in test [2], 1.58 nM; in test [4], 0.27 nM.

As for `CC(/C=C/[C@@H]1C[C@]2(CO2)C[C@@H](CC(N)=O)O1)=C\C[C@@H]1O[C@H](C)[C@H](NC(=O)/C=C\[C@H](C)OC(=O)N2CCNCC2)C[C@@H]1C` [#B136, (2S,3Z)-5-{[(2R,3R,5S,6S)-6-{(2E,4E)-5-[(3S,5S,7S)-7-(2-amino-2-oxoethyl)-1,6-dioxaspiro[2.5]oct-5-yl]-3-methylpenta-2,4-dien-1-yl}-2,5-dimethyltetrahydro-2H-pyran-3-yl]amino}-5-oxopent-3-en-2-yl piperazine-1-carboxylate, acetate salt], the IC50 in test [1] was 25.5 nM; in test [2], 90.1 nM; in test [3], above 100 nM.

For `CC(/C=C/[C@@H]1C[C@]2(CO2)C[C@@H](CC(N)=O)O1)=C\C[C@@H]1O[C@H](C)[C@H](NC(=O)/C=C\[C@H](C)OC(=O)N2CCN(C)CC2)C[C@@H]1C` [#B137, (2S,3Z)-5-{[(2R,3R,5S,6S)-6-{(2E,4E)-5-[(3S,5S,7S)-7-(2-amino-2-oxoethyl)-1,6-dioxaspiro[2.5]oct-5-yl]-3-methylpenta-2,4-dien-1-yl}-2,5-dimethyltetrahydro-2H-pyran-3-yl]amino}-5-oxopent-3-en-2-yl-4-methylpiperazine-1-carboxylate], the IC50 in test [1] was found to be 1.8 nM; in test [2] it was 5.59 nM; in test [3], 10.3 nM.

Take `CC(/C=C/[C@@H]1C[C@]2(CO2)C[C@@H](CN)O1)=C\C[C@@H]1O[C@H](C)[C@H](NC(=O)/C=C\[C@H](C)O)C[C@@H]1C` [#B139, (2Z,4S)—N-[(2R,3R,5S,6S)-6-{(2E,4E)-5-[(3R,5S,7S)-7-(aminomethyl)-1,6-dioxaspiro[2.5]oct-5-yl]-3-methylpenta-2,4-dien-1-yl}-2,5-dimethyltetrahydro-2H-pyran-3-yl]-4-hydroxypent-2-enamide, acetate salt]: the concentration for half-maximal inhibition (IC50) was 5.49 nM in test [1], 6.51 nM in test [2] and 13.4 nM in test [3].

Turning to `CC(=O)O[C@@H](C)/C=C\C(=O)N[C@@H]1C[C@H](C)[C@H](C/C=C(C)/C=C/[C@@H]2C[C@]3(CO3)C[C@@H](CN)O2)O[C@@H]1C` [#B140, (2S,3Z)-5-{[(2R,3R,5S,6S)-6-{(2E,4E)-5-[(3R,5S,7S)-7-(aminomethyl)-1,6-dioxaspiro[2.5]oct-5-yl]-3-methylpenta-2,4-dien-1-yl}-2,5-dimethyltetrahydro-2H-pyran-3-yl]amino}-5-oxopent-3-en-2-yl acetate, acetate salt], the results for the IC50 in test [1], in test [2] and in test [3] were 0.517 nM, 1.01 nM and 0.632 nM, respectively.

On to `CC(=O)O[C@@H](C)/C=C\C(=O)N[C@@H]1C[C@H](C)[C@H](C/C=C(C)/C=C/[C@H]2O[C@H](CC(=O)N[C@H]3CC[C@H](O)CC3)C[C@@]3(CO3)[C@@H]2O)O[C@@H]1C` [#B141, (2S,3Z)-5-{[(2R,3R,5S,6S)-6-{(2E,4E)-5-[(3R,4R,5R,7S)-4-hydroxy-7-{2-[(trans-4-hydroxycyclohexyl)amino]-2-oxoethyl}-1,6-dioxaspiro[2.5]oct-5-yl]-3-methylpenta-2,4-dien-1-yl}-2,5-dimethyltetrahydro-2H-pyran-3-yl]amino}-5-oxopent-3-en-2-yl acetate], for which the IC50 in test [1] was 10.9 nM; in test [2], 11 nM; in test [3] it was 12.8 nM.

As for `CC(=O)O[C@@H](C)/C=C\C(=O)N[C@@H]1C[C@H](C)[C@H](C/C=C(C)/C=C/[C@H]2O[C@H](CN)C[C@@]3(CO3)[C@@H]2O)O[C@@H]1C` [#B147, (2S,3Z)-5-{[(2R,3R,5S,6S)-6-{(2E,4E)-5-[(3R,4R,5R,7S)-7-(aminomethyl)-4-hydroxy-1,6-dioxaspiro[2.5]oct-5-yl]-3-methylpenta-2,4-dien-1-yl}-2,5-dimethyltetrahydro-2H-pyran-3-yl]amino}-5-oxopent-3-en-2-yl acetate, acetate salt], the figures for the IC50 in test [1], in test [2] and in test [3] were 6.81 nM, 9.92 nM and 17.2 nM, respectively.

On to `CC(=O)O[C@@H](C)/C=C\C(=O)N[C@@H]1C[C@H](C)[C@H](C/C=C(C)/C=C/[C@H]2O[C@H](CC(=O)O)C[C@@](O)(CCl)[C@@H]2O)O[C@@H]1C` [#NP5, (5R)-5-{(1E,3E)-5-[(2S,3S,5R,6R)-5-{[(2Z,4S)-4-(acetyloxy)pent-2-enoyl]amino}-3,6-dimethyltetrahydro-2H-pyran-2-yl]-3-methylpenta-1,3-dien-1-yl}-1,5-anhydro-1-(carboxymethyl)-3-C-(chloromethyl)-2-deoxypentitol], for which the concentration for half-maximal inhibition (IC50) in test [1], in test [2] and in test [4] was above 100 nM throughout.

As for `CC(=O)O[C@@H](C)/C=C\C(=O)N[C@@H]1C[C@H](C)[C@H](C/C=C(C)/C=C/[C@H]2OC(C)(O)C(O)C(O)(CO)C2O)O[C@@H]1C` (stereo partly drawn) [#NP6, (6R)-6-{(1E,3E)-5-[(2S,3S,5R,6R)-5-{[(2Z,4S)-4-(acetyloxy)pent-2-enoyl]amino}-3,6-dimethyltetrahydro-2H-pyran-2-yl]-3-methylpenta-1,3-dien-1-yl}-1-deoxy-4-C-(hydroxymethyl)hex-2-ulopyranose], the IC50 in test [1], in test [2] and in test [4] was above 100 nM throughout.

Regarding `CC(=O)OCC1(O)CC(/C=C/C(C)=C/C[C@@H]2O[C@H](C)[C@H](NC(=O)/C=C\[C@H](C)OC(C)=O)C[C@@H]2C)OC(CC(=O)O)C1` (stereo partly drawn) [#NP7, (4-[(acetyloxy)methyl]-6-{(1E,3E)-5-[(2S,3S,5R,6R)-5-{[(2Z,4S)-4-(acetyloxy)pent-2-enoyl]amino}-3,6-dimethyltetrahydro-2H-pyran-2-yl]-3-methylpenta-1,3-dien-1-yl}-4-hydroxytetrahydro-2H-pyran-2-yl)acetic acid], the half-inhibitory concentration (IC50) in test [1], in test [2] and in test [4] was above 100 nM each time.

Turning to `CC(=O)O[C@@H](C)/C=C\C(=O)N[C@@H]1C[C@H](C)[C@H](C/C=C(C)/C=C/C2CC(O)(CCl)CC(CC(=O)O)O2)O[C@@H]1C` (stereo partly drawn) [#NP8, [6-{(1E,3E)-5-[(2S,3S,5R,6R)-5-{[(2Z,4S)-4-(acetyloxy)pent-2-enoyl]amino}-3,6-dimethyltetrahydro-2H-pyran-2-yl]-3-methylpenta-1,3-dien-1-yl}-4-(chloromethyl)-4-hydroxytetrahydro-2H-pyran-2-yl]acetic acid], the values for the IC50 in test [1], in test [2] and in test [4] were 1.94 nM, 0.643 nM and 1.35 nM, respectively.

Consider `CC(=O)OCC1(O)C(O)C(/C=C/C(C)=C/C[C@@H]2O[C@H](C)[C@H](NC(=O)/C=C\[C@H](C)OC(C)=O)C[C@@H]2C)OC(C)(O)C1O` (stereo partly drawn) [#NP9, 4-C-[(acetyloxy)methyl]-6-{(1E,3E)-5-[(2S,3S,5R,6R)-5-{[(2Z,4S)-4-(acetyloxy)pent-2-enoyl]amino}-3,6-dimethyltetrahydro-2H-pyran-2-yl]-3-methylpenta-1,3-dien-1-yl}-1-deoxyhex-2-ulopyranose], for which the IC50 in test [1] came to 65.8 nM; in test [2], 74.3 nM; in test [4], 59.2 nM.

Consider `CC(=O)O[C@@H](C)/C=C\C(=O)N[C@@H]1C[C@H](C)[C@H](C/C=C(C)/C=C/[C@@H]2C[C@]3(CO3)C[C@@](C)(O)O2)O[C@@H]1C` [#NP12, (2S,3Z)-5-{[(2R,3R,5S,6S)-6-{(2E,4E)-5-[(3R,5S,7S)-7-hydroxy-7-methyl-1,6-dioxaspiro[2.5]oct-5-yl]-3-methylpenta-2,4-dien-1-yl}-2,5-dimethyltetrahydro-2H-pyran-3-yl]amino}-5-oxopent-3-en-2-yl acetate], for which the IC50 in test [1] is 5.02 nM; in test [2], 13.8 nM; in test [3], 4.91 nM.

Values taken from patent US9504669B2, “Spliceostatin analogs and methods for their preparation” (PFIZER INC., priority 2012, dated 2016).
